Results published in patent US9320276B2, “N-hetarylmethyl pyrazolylcarboxamides” (BAYER INTELLECTUAL PROPERTY GMBH, priority 2010, dated 2016).

Tests used:
Septoria tritici = test: in vivo preventive test on Septoria tritici (wheat); conditions: 500 ppm of active ingredient, evaluated 21 days after inoculation
Procedure: Solvent: 49 parts by weight of N,N-dimethylacetamide Emulsifier: 1 part by weight of alkylaryl polyglycol ether To produce a suitable preparation of active compound, 1 part by weight of active compound or active compound combination is mixed with the stated amounts of solvent and emulsifier, and the concentrate is diluted with water to the desired concentration. To test for preventive activity, young plants are sprayed with the preparation of active compound or active compound combination at the stated rate of application. After the spray coating has been dried, the plants are sprayed with a spore suspension of Septoria tritici. The plants remain for 48 hours in an incubation cabinet at approximately 20° C. and a relative atmospheric humidity of approximately 100% and afterwards for 60 hours at approximately 15° C. in a translucent incubation cabinet at a relative atmospheric humidity of approximately 100%. The plants are placed in the greenhouse at a temperature of approximately 15° C. and a relative atmospheric humidity of approximately 80%. The test is evaluated 21 days after the inoculation. 0% means an efficacy which corresponds to that of the untreated control, while an efficacy of 100% means that no disease is observed.

Venturia inaequalis = test: in vivo preventive test on Venturia inaequalis (apple scab); conditions: 100 ppm of active ingredient, evaluated 10 days after inoculation
Procedure: Solvent: 24.5 parts by weight of acetone • 24.5 parts by weight of N,N-dimethylacetamide Emulsifier: 1 part by weight of alkylaryl polyglycol ether To produce a suitable preparation of active compound, 1 part by weight of active compound is mixed with the stated amounts of solvent and emulsifier, and the concentrate is diluted with water to the desired concentration. To test for preventive activity, young plants are sprayed with the preparation of active compound at the stated rate of application. After the spray coating has dried on, the plants are inoculated with an aqueous conidia suspension of the causal agent of apple scab (Venturia inaequalis) and then remain for 1 day in an incubation cabinet at approximately 20° C. and a relative atmospheric humidity of 100%. The plants are then placed in a greenhouse at approximately 21° C. and a relative atmospheric humidity of approximately 90%. The test is evaluated 10 days after the inoculation. 0% means an efficacy which corresponds to that of the untreated control, while an efficacy of 100% means that no disease is observed.

[1] = logP by HPLC on reversed-phase column (EEC Directive 79/831 Annex V.A8); format: physicochemical; conditions: HPLC on reversed-phase column (C 18), 40° C., 0.1% aqueous formic acid and acetonitrile, linear gradient 10% to 90% acetonitrile
Method in brief: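 Reversed-phase C18 HPLC at 40° C with 0.1% aqueous formic acid/acetonitrile, linear gradient 10% to 90% acetonitrile. LogP obtained from retention time by linear interpolation between successive unbranched alkan-2-ones (3 to 16 carbons) of known logP. Lambda-max taken from UV spectra at 200-400 nm at chromatographic peak maxima.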

Pyrenophora teres = test: in vivo preventive test on Pyrenophora teres (barley); conditions: 500 ppm of active ingredient, evaluated 7-9 days after inoculation
Method in brief: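 Young barley plants sprayed with compound in DMF/alkylaryl polyglycol ether emulsion; inoculated with P. teres spores one day later. 48 h at 22 °C, 100% humidity, then greenhouse ~20 °C, ~80% humidity; efficacy scored 7-9 days post-inoculation, 0% = untreated, 100% = no disease.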

Leptosphaeria nodorum = test: in vivo preventive test on Leptosphaeria nodorum (wheat); conditions: 500 ppm of active ingredient, evaluated 7-9 days after inoculation
Procedure: Solvent: 49 parts by weight of N,N-dimethylacetamide Emulsifier: 1 part by weight of alkylaryl polyglycol ether To produce a suitable preparation of active compound, 1 part by weight of active compound is mixed with the stated amounts of solvent and emulsifier, and the concentrate is diluted with water to the desired concentration. To test for preventive activity, young plants are sprayed with a preparation of active compound at the stated rate of application. One day after this treatment, the plants are inoculated with an aqueous spore suspension of Leptosphaeria nodorum. The plants remain for 48 hours in an incubation cabinet at 22° C. and a relative atmospheric humidity of 100%. Then the plants are placed in a greenhouse at a temperature of approximately 22° C. and a relative atmospheric humidity of approximately 90%. The test is evaluated 7-9 days after the inoculation. 0% means an efficacy which corresponds to that of the untreated control, while an efficacy of 100% means that no disease is observed.

Alternaria solani = test: in vivo preventive test on Alternaria solani (tomato); conditions: 500 ppm of active ingredient, evaluated 7 days after inoculation
Method in brief: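 Young tomato plants were sprayed preventively with compound in DMF/alkylarylpolyglycolether diluted in water, then inoculated one day later with A. solani spores. Incubation was 1 day at about 22 °C and 100% RH, then about 20 °C and 96% RH. Efficacy was scored 7 days after inoculation (0% = untreated control, 100% = no disease).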

[2] = system: Fusarium nivale (var. majus); test: in vivo curative test on Fusarium nivale (wheat); conditions: 500 ppm of active ingredient, evaluated 5 days after inoculation
Procedure: Solvent: 49 parts by weight of N,N-dimethylacetamide Emulsifier: 1 part by weight of alkylaryl polyglycol ether To produce a suitable preparation of active compound, 1 part by weight of active compound or active compound combination is mixed with the stated amounts of solvent and emulsifier, and the concentrate is diluted with water to the desired concentration. To test for curative activity, young plants are slightly injured by using a sandblast and afterwards they are sprayed with a conidia suspension of Fusarium nivale (var. majus) and placed for 24 hours in a greenhouse under a translucent incubation cabinet at a temperature of approximately 10° C. and a relative atmospheric humidity of approximately 100% and are subsequently sprayed with the preparation of active compound at the stated rate of application. After the spray coating has been dried, the plants remain in the greenhouse under translucent incubation cloches at a temperature of approximately 10° C. and a relative atmospheric humidity of approximately 100%. The test is evaluated 5 days after the inoculation. 0% means an efficacy which corresponds to that of the untreated control, while an efficacy of 100% means that no disease is observed.

[3] = system: Blumeria graminis fsp. hordei; test: in vivo preventive test on Blumeria graminis (barley); conditions: 500 ppm of active ingredient, evaluated 7 days after inoculation
Procedure: Solvent: 49 parts by weight of N,N-dimethylacetamide Emulsifier: 1 part by weight of alkylaryl polyglycol ether To produce a suitable preparation of active compound, 1 part by weight of active compound or active compound combination is mixed with the stated amounts of solvent and emulsifier, and the concentrate is diluted with water to the desired concentration. To test for preventive activity, young plants are sprayed with the preparation of active compound or active compound combination at the stated rate of application. After the spray coating has been dried, the plants are dusted with spores of Blumeria graminis fsp. hordei. The plants are placed in the greenhouse at a temperature of approximately 18° C. and a relative atmospheric humidity of approximately 80% to promote the development of mildew pustules. The test is evaluated 7 days after the inoculation. 0% means an efficacy which corresponds to that of the untreated control, while an efficacy of 100% means that no disease is observed.

Sphaerotheca fuliginea = test: in vivo preventive test on Sphaerotheca fuliginea (cucumber); conditions: 500 ppm of active ingredient, evaluated 7 days after inoculation
Procedure: Solvent: 49 parts by weight of N,N-dimethylformamide Emulsifier: 1 part by weight of Alkylarylpolyglycolether To produce a suitable preparation of active compound, 1 part by weight of active compound is mixed with the stated amounts of solvent and emulsifier, and the concentrate is diluted with water to the desired concentration. To test for preventive activity, young plants are sprayed with the preparation of active compound at the stated rate of application. One day after this treatment, the plants are inoculated with an aqueous spore suspension of Sphaerotheca fuliginea. Then the plants are placed in a greenhouse at approximately 23° C. and a relative atmospheric humidity of approximately 70%. The test is evaluated 7 days after the inoculation. 0% means an efficacy which corresponds to that of the untreated control, while an efficacy of 100% means that no disease is observed.

In the case of `CC(c1csc2ccccc12)N(C(=O)c1c(C(F)F)nn(C)c1F)C1CC1` (racemic) [Example 85], the Efficacy (Septoria tritici) is reported as 90%, the Efficacy (Venturia inaequalis) is reported as 100% and the logP [1] is reported as 3.60. It also gave an Efficacy (Pyrenophora teres) of 100%, an Efficacy (Leptosphaeria nodorum) of 100% and an Efficacy (Alternaria solani) of 80%. The Efficacy [2] was 100%, the Efficacy [3] was 100% and the Efficacy (Sphaerotheca fuliginea) was 94%.
